How the values were obtained:
[1] = system: androgen receptor; assay: Transient transfection luciferase reporter assay, 3 copies of hK2 ARE, in LNCaP cells; type: cell-based, human; settings: minimum SV40 promoter and 3 copies of hK2 ARE, 1 nM Mib, 24 hrs, FIG. 3B
Description: (§1) The 6 Kb PSA promoter and the androgen receptor promoter constructs (pGL3 SV40, pGL3 SV40-3 ARE, pGL3 or PSA promoter/pGL3) were described previously (Id). To make an hk2 androgen responsive element (hk2 ARE) construct, a DNA fragment containing three copies of hk2 ARE (5′-[…]-3′ (SEQ ID NO:1)) was synthesized by the Mayo Molecular Core Facility. The synthesized fragment, including SacI and XhoI restriction enzyme sites at the 5′ and 3′-end, respectively, was digested with SacI and XhoI according to manufacturer's instructions and inserted into a pre-cut pGL3-Promoter vector (Promega). The fidelity of this construct was confirmed by DNA sequencing.
(§2) LNCaP cells in duplicate plates were co-transfected with a CMV-β galactosidase (β-gal) expression vector (0.3 μg/plate) and one of the following: a pGL3-Basic luciferase vector (Promega) containing the PSA promoter (nucleotides 1-5836 of GenBank Accession No. U37672), a pGL3-Promoter luciferase vector (Promega) containing three copies of hk2 ARE, a PGL3 vector or PSA promoter/PGL3 vector. Transfections were performed using a liposome method with dimethyldioctadecyl-ammonium bromide (Sigma) and L-lecithin (Sigma) (4:10). Cells were then treated with POH in the presence or absence of 1 nM Mib for 24 hrs. Cell extracts were prepared and used for luciferase and β-gal assays (Promega). […]

[2] = system: c-jun; assay: Expression of c-jun protein after POH treatment; type: cell-based; settings: normalized data, FIG. 6
Experimental: In order to ascertain how androgen receptor function was being inhibited by POH at levels below 1 μM, c-jun was examined. […] The graph depicts the normalized data. This experiment was repeated twice and representative data is shown.

[3] = system: androgen receptor promoter; assay: Luciferase reporter assay with androgen receptor promoter in LNCaP cells; type: cell-based, human
Description: as §1, §2

[4] = system: androgen receptor; assay: Transient transfection luciferase reporter assay, PSA promoter, in LNCaP cells; type: cell-based, human; settings: 1 nM Mib, 24 hrs, FIG. 3A
Description: as §1, §2

[5] = system: PSA; assay: PSA quantification in spent media of LNCaP cells (Tandem-E PSA kit); type: cell-based, human; settings: 1 nM Mib, five days, normalized to MTS; FIG. 2A
Experimental: (§3) A human prostate cancer cell line, LNCaP (American Type Culture Collection (ATCC), Manassas, Va.), was grown in RPMI 1640 medium (Mediatech, Herndon, Va.) supplemented with 5% fetal bovine serum (FBS) and 5% CO2 at 37° C. until reaching approximately 50-70% confluence. The media were changed to serum-free RPMI 1640 at 24 hrs prior to performing experiments to deplete undesired steroids. Cells were then treated with 5% charcoal-stripped FBS RPMI 1640 containing POH (all from Sigma (St. Louis, Mo.), dissolved in DMSO) at indicated concentrations with or without 1 nM of mibolerone (Mib) (from New England Nuclear (St. Louis, Mo.), dissolved in ethanol), a non-metabolizable synthetic androgen. Equivalent amounts of solvent were added to control cells.
(§4) LNCaP cells were seeded at 4×10^4/well in 24-well dishes and treated with POH at indicated concentrations in the presence of 1 nM Mib. Five days later, cell proliferation was measured using an MTS assay kit (Promega, Madison, Wis.), and PSA and hK2 levels in spent media were determined by the Tandem-E PSA kit (Hybritech Inc., San Diego, Calif.) or Mayo's hK2 assay (Zhang et al., 1999, Endocrin., 140:1665-71). Protein levels of PSA and hK2 were normalized to the MTS measurements.

[6] = system: hK2; assay: hK2 quantification in spent media of LNCaP cells (Mayo's hK2 assay); type: cell-based, human; settings: 1 nM Mib, five days, normalized to MTS; FIG. 2B
Experimental: as §3, §4

[7] = system: androgen receptor; assay: Western blot analysis of androgen receptor protein in LNCaP cells; type: cell-based, human; settings: POH until a concentration of 1 μM is reached, 1 nM Mib, 24 hrs
Experimental: LNCaP cells were treated with the indicated concentrations of POH in the presence of 1 nM Mib for 24 hrs. Cells were then harvested, and whole-cell lysates and nuclear extracts were prepared as described (Mitchell et al., 1999, Cancer Res., 59:5892-5). Western blot analysis was performed according to the protocol described (Id). A mouse antibody against the human androgen receptor (1:1000 or 1:2000 dilution) (Pharmingen, San Diego, Calif.) or human tubulin (1:10,000 dilution) (Santa Cruz, Santa Cruz, Calif.) was used as the primary antibody. Ponceau S staining was used for monitoring protein loading and transfer efficiency (Id).

[8] = system: LNCaP cells; assay: Cell proliferation assay (MTS) in LNCaP cells; type: cell-based, human; settings: five days
Experimental: as §3, §4

| Structure (SMILES) | ARE-regulated luciferase activity [1] | level of c-jun [2] | androgen receptor promoter activity ([3]; POH at 1 μM) | androgen receptor promoter activity ([3]; POH below 1 μM) | androgenic inducibility of the PSA promoter (luciferase reporter) [4] | accumulation of PSA protein in LNCaP cells stimulated by androgens [5] | accumulation of hK2 protein in LNCaP cells stimulated by androgens [6] | androgen-enhanced androgen receptor protein levels [7] | proliferation of LNCaP cells ([8]; POH in the presence of 1 nM Mib, p<0.05, FIG. 1) | LNCaP cell proliferation ([8]; presence of Mib (1 nM), FIG. 1) |
| --- | --- | --- | --- | --- | --- | --- | --- | --- | --- | --- |
| C=C(C)[C@@H]1CC=C(CO)CC1 [POH, Perillyl alcohol] | inhibited | up to 3.5 times the control levels | drastically reduced | not affected | significantly reduced | inhibited | inhibited | not affected | significantly inhibited |  |
| C[C@@H]1CC2=CC(=O)CC[C@@H]2[C@H]2CC[C@@]3(C)[C@@H](CC[C@]3(C)O)[C@@H]21 [Mib, mibolerone] |  |  |  |  |  |  |  |  |  | significantly increased |

Reference: US20090036544A1, “METHODS AND COMPOSITIONS FOR INHIBITING THE PROLIFERATION OF PROSTATE CANCER CELLS” (priority 2001, published 2009)
